What was measured:
[1] = tested on: TβRII; assay: TβRII protein in human hair germinal matrix cells deficient in endogenous HA (4-MU); format: cell-based; conditions: 4-MU-treated cells; HAPLN1 25 ng/mL; TGF-β2 2 ng/mL
Description: (§1) 4-MU (4-methylumbelliferone) is an inhibitor of HA-producing hyaluronan synthase 2 (HAS2), which produces HA. In order to confirm the effect of HA produced in cells, HA production in cells was inhibited using 4-MU.
(§2) The human hair germinal matrix cells, in which the endogenous HA was inhibited by treating 4-MU, were dispensed into a poly-D-lysine 6-well plate at a concentration of 5.0×10^4 per well and cultured for 24 hours. After 24 hours, the medium was removed and replaced with a new serum-free medium. HAPLN1 was treated with 25 ng/mL, and after 1 hour, TGF-β2 (2 ng/mL) was treated. After 23 hours, cells were collected, a lysis buffer (25 mM Tris-HCl, 1 mM EDTA, 0.1% Triton-X100, phosphatase inhibitor, and protease inhibitor) was added, and all the cells were broken through sonication. HAS2 and TβRII in the sample were measured using Western blotting. The optical density of each of HAS2 and TβRII was compared to that of GAPDH using a densitometer.

[2] = tested on: HAS2; assay: HAS2 protein in human hair germinal matrix cells deficient in endogenous HA (4-MU); format: cell-based; conditions: 4-MU-treated cells; HAPLN1 25 ng/mL; TGF-β2 2 ng/mL
Description: as §1, §2

Cc1cc(=O)oc2cc(O)ccc12 [4-MU, 4-methylumbelliferone, reference compound]
TβRII level [1]: decreased
HAS2 level [2]: decreased

— patent US20220202899A1, “COMPOSITION FOR PREVENTION OR TREATMENT OF HAIR LOSS INCLUDING HAPLN1” (HAPLNSCIENCE INC., priority 2019, published 2022)
